Where two headings read alike, the source gives them in different places.
Experiments:
VZV (wild-type strains) = assay: Anti-VZV assay (wild-type strains): virus-induced cytopathicity in HEL cell cultures; format: cell-based, varicella-zoster virus; conditions: HEL cell cultures
[1] = test system: SARS virus (strain Frankfurt-1); assay: microbe, parasite or virus in culture; format: cell-based, human corona (SARS) virus; conditions: SARS virus in Vero cells; read-out: EC50 SARS virus
HEL cells [2] = test system: HEL cells
HEL cells [3] = conditions: read-out: CC50 (HEL)
FCK cells = conditions: read-out: CC50 FCK; FCK cells
Vero cells = conditions: read-out: CC50 Vero
CMV = assay: Anti-CMV assay: virus-induced cytopathicity in HEL cell cultures
FCV = assay: Feline corona virus assay in Feline Crandel kidney cells (MTS); format: cell-based; conditions: FCV in FCK cells; read-out: EC50 FCV
Procedure: Feline Crandel kidney cells were seeded in 96-well microtiter plates at 24,000 cells/well. Then, 24 hrs later, an appropriate inoculum of FCV is added together with 5-fold dilutions of the test compounds. After 4 days, a MTS/PMS solution was added to each well. Following a 90 min incubation period at 37° C., the optical density of the wells was read at 498 nm in a microplate reader.

HSV-1 (KOS) = assay: Anti-HSV-1 assay: virus-induced cytopathicity in HEL cell cultures; conditions: for EC50: read-out: EC50 HSV-1 (KOS), HEL cell cultures
HSV-2 (G) = assay: Anti-HSV-2 assay: virus-induced cytopathicity in HEL cell cultures; conditions: for EC50: read-out: EC50 HSV-2 (G), HEL cell cultures
[4] = VZV strain OKA, read-out: EC50 VZV (OKA)
[5] = VZV strain YS, read-out: EC50 VZV (YS)
[6] = read-out: EC50 CMV AD-169, CMV strain AD-169, HEL cell cultures
[7] = read-out: EC50 CMV Davis, CMV strain Davis, HEL cell cultures

| Compound | EC50 (VZV (wild-type strains); [4]) [µM] | EC50 (VZV (wild-type strains); [5]) [µM] | EC50 [1] [µM] | MTC (HEL) (HEL cells [2]; anti-CMV table) | MTC (HEL) (HEL cells [2]; anti-VZV table) | CC50 (HEL cells [3]; HEL cells, anti-CMV table) [µM] | CC50 (HEL cells [3]; HEL cells, anti-VZV table) [µM] | CC50 (FCK cells) [µM] | CC50 (Vero cells) [µM] | anti-CMV activity (CMV) | EC50 (CMV; [6]) [µM] | EC50 (CMV; [7]) [µM] | EC50 (FCV) [µM] | MTC (HEL) (HEL cells [2]) | CC50 (HEL cells [3]; HEL cell proliferation) [µM] | activity against HSV-1 (HSV-1 (KOS)) | EC50 (HSV-1 (KOS)) [µM] | activity against HSV-2 (HSV-2 (G)) | EC50 (HSV-2 (G)) [µM] |
| --- | --- | --- | --- | --- | --- | --- | --- | --- | --- | --- | --- | --- | --- | --- | --- | --- | --- | --- | --- |
| CCCCc1ccc(CN2CCN(C(=O)C3NC(=O)C4NC(=O)C(NC(=O)C5NC(=O)C6NC(=O)C(Cc7ccc(c(Cl)c7)Oc7cc5cc(c7O)Oc5ccc(cc5Cl)C4O)NC(=O)C(N)c4ccc(O)c(c4)Oc4cc(O)cc6c4)c4ccc(O)c(c4)-c4c(O)cc(O)cc43)CC2)cc1 (stereo not shown) [Compound 124] | 0.34 | 0.22 | 15 | ≧5-100 μM | ≧5-100 μM | 71 | 71 | 17 | > 100 | anti-CMV activity | 2.4 | 3.2 | – | – | – | – | – | – | – |
| CCCCOc1ccc(CN2CCN(C(=O)C3NC(=O)C4NC(=O)C(NC(=O)C5NC(=O)C6NC(=O)C(Cc7ccc(c(Cl)c7)Oc7cc5cc(c7O)Oc5ccc(cc5Cl)C4O)NC(=O)C(N)c4ccc(O)c(c4)Oc4cc(O)cc6c4)c4ccc(O)c(c4)-c4c(O)cc(O)cc43)CC2)cc1 (stereo not shown) [Compound 125] | 0.32 | 0.25 | 10 | ≧2-20 μM | ≧2-20 μM | 44 | 44 | 14 | > 100 | anti-CMV activity | 1.9 | 2.8 | 1.6 | – | – | – | – | – | – |
| CCCCOc1ccc(CNCCOc2c3cc4cc2Oc2ccc(cc2Cl)C(O)C2NC(=O)C(NC(=O)C4NC(=O)C4NC(=O)C(Cc5ccc(c(Cl)c5)O3)NC(=O)C(NCc3ccc(OCCCC)cc3)c3ccc(O)c(c3)Oc3cc(O)cc4c3)c3ccc(O)c(c3)-c3c(O)cc(O)cc3C(C(=O)O)NC2=O)cc1 (stereo not shown) [Compound 132] | 0.97 | – | – | – | ≧5-20 μM | – | 40 | – | – | – | – | – | – | ≧5-20 μM | 40 | activity | 9.6 | activity | 9.6 |
| CC1(C)SC2C(NC(=O)C3NC(=O)C4NC(=O)C(NC(=O)C5NC(=O)C6NC(=O)C(Cc7ccc(c(Cl)c7)Oc7cc5cc(c7O)Oc5ccc(cc5Cl)C4O)NC(=O)C(N)c4ccc(O)c(c4)Oc4cc(O)cc6c4)c4ccc(O)c(c4)-c4c(O)cc(O)cc43)C(=O)N2C1C(=O)O (stereo not shown) [Compound 145] | 3.9 | 2.8 | – | – | – | – | > 50 | – | – | – | – | – | – | – | > 50 | – | 48 | – | 48 |
| CCCCc1ccc(CNCc2c(O)cc3c(c2O)-c2cc(ccc2O)C2NC(=O)C4NC(=O)C5NC(=O)C(Cc6ccc(c(Cl)c6)Oc6cc4cc(c6O)Oc4ccc(cc4Cl)C(O)C(NC2=O)C(=O)NC3C(=O)O)NC(=O)C(NC(=O)OC(C)(C)C)c2ccc(O)c(c2)Oc2cc(O)cc5c2)cc1 (stereo not shown) [Compound 146] | 2.5 | – | – | ≧5-50 μM | ≧5-50 μM | > 50 | > 50 | – | – | – | > 20 | – | – | ≧5-50 μM | > 50 | activity | 9.6 | activity | 9.6 |
| Ristosaminylaglycon of ristomycin [Compound 88] | – | – | – | – | – | – | – | – | – | – | – | – | – | – | > 50 | – | 120 | – | > 200 |
